These results are taken from PubChem BioAssay (NCI).

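48-hour exposure; five concentrations; linearly interpolated endpoints. At the GI50, growth is halved. The concentration for full growth arrest is given as TGI.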

Holding throughout (assay): growth of human tumour cells (NCI), 48 h
The test system of assay [1] is CCRF-CEM leukemia.
The test system of assay [2] is OVCAR-5 ovarian.
Assay [3] relates to HT29 colon.
Assay [4] deals with UACC-257 melanoma.
In assay [5] the test system is M14 melanoma.
For assay [6], the system named is A549 NSCLC.
The subject of assay [7] is SK-OV-3 ovarian.
The test system of assay [8] is NCI-H23 lung.
In assay [9] the test system is CAKI-1 renal.
Assay [10] deals with NCI-H460 lung.

On to `C=C1C(=O)O[C@H]2[C@H]1CC/C(Cn1cc(Cn3ccc4ccccc43)nn1)=C\CC[C@@]1(C)O[C@@H]21`, for which the GI50 was 0.298 µM in assay [1]; 1.59 µM in [2]; 1.7 µM in assay [3]; 2.04 µM in [4]; 1.25 µM in assay [5]; 13.1 µM in assay [6]. Besides, the GI50 in [7] was 16 µM; in [8] it was 2.5 µM; in assay [9] it was 1.15 µM; in assay [10] it was 5.66 µM. The TGI in assay [1] is 1.73 µM; in assay [2] it was 3.21 µM; in [3] it was 3.27 µM; in assay [4] it was 4.41 µM; in [5], 2.79 µM; in assay [6], 27.4 µM. For the same compound, the TGI in assay [7] was 30.1 µM; in [8], 6.49 µM; in assay [9] it was 2.38 µM; in [10], 19.7 µM.
As for `CCOC(=O)/C(=C/c1ccc([N+](=O)[O-])cc1)C(=O)c1ccccc1`, the GI50 was 3.03 µM in assay [1]; 2.55 µM in [2]; 2.05 µM in assay [3]; 3.12 µM in assay [4]; 2.11 µM in [5]; 6.28 µM in assay [6]. For the same compound, the GI50 in [7] was 11.5 µM; in assay [8], 2.25 µM; in assay [9], 2.56 µM; in [10], 2.69 µM. Moreover, the TGI in assay [1] was 9.11 µM; in assay [2], 6.93 µM; in [3], 3.83 µM; in assay [4] it was 7.61 µM; in assay [5], 5.01 µM; in [6], 20.6 µM. Also, the TGI in [7] amounted to 23.6 µM; in [8] it was 5.56 µM; in [9] it was 7.13 µM; in [10] it was 7.15 µM.
Regarding `COC(=O)C(C)NP(=O)(OCc1ccc(Cn2cnc3c(=O)[nH]c(N)nc32)cc1)Oc1ccccc1` (stereo not drawn), the GI50 in assay [1], in assay [2], in assay [3], in assay [4], in [5] and in [6] was greater than 100 µM in each case. The GI50 in [7], in [8], in [9] and in [10] was greater than 100 µM each time. For the same compound, the TGI in [1], in assay [2], in assay [3], in assay [4], in assay [5] and in [6] was greater than 100 µM in each case. Besides, the TGI in assay [7], in [8], in [9] and in assay [10] was greater than 100 µM in each case.
For `CN[C@]12CC3(C=CC(=O)C=C3)O[C@@]1(Cc1ccc(OC)cc1)N(C)C(=O)N2`, the GI50 is 1.8 µM in [1]; 2.21 µM in assay [2]; 1.63 µM in assay [3]; 3.52 µM in [4]; 1.99 µM in assay [5]; 3.11 µM in assay [6]. Besides, the GI50 in assay [7] was 5.12 µM; in assay [8] it was 2.88 µM; in [9], 2.69 µM; in assay [10] it was 3.44 µM. Moreover, the TGI was found to be 3.72 µM in assay [1]; 5.59 µM in [2]; 6.28 µM in assay [3]; 19.8 µM in assay [4]; 7.6 µM in assay [5]; 14 µM in assay [6]. Moreover, the TGI in [7] is 44.2 µM; in [8], 9.35 µM; in assay [9], 10.2 µM; in [10] it was 13.7 µM.
Take `CCOC(=O)c1c(C)nc2ccc(Cl)cc2c1-c1ccccc1`: the GI50 in assay [1] is 18.8 µM; in [2], 19.8 µM; in assay [3] it was 16.1 µM; in assay [4], 25.5 µM; in assay [5], 18.7 µM; in assay [6], 25.6 µM. Also, the GI50 in assay [7] was 19.1 µM; in [8], 28.7 µM; in assay [9], 21.1 µM; in [10], 20.2 µM. Also, the TGI in [1] is 48.9 µM; in assay [2], 44.6 µM; in assay [3], 75.3 µM; in [4] it was 83.1 µM; in [5], 52.3 µM; in [6], greater than 100 µM. Moreover, the TGI was 45.6 µM in assay [7], greater than 100 µM in assay [8], 55 µM in assay [9] and 45.2 µM in [10].
On to `COc1ccc(N(CC(=O)NCCC[Te]c2ccccc2)C(=O)CCSC2=C(C)C(=O)c3ccccc3C2=O)cc1`, for which the GI50 in assay [1] is 0.508 µM; in [2], 0.498 µM; in [3], 1.95 µM; in assay [4], 2.56 µM; in assay [5] it was 1.17 µM; in assay [6] it was 0.302 µM. Moreover, the GI50 in assay [7] is 2.14 µM; in assay [8], 0.623 µM; in assay [9], 2.25 µM; in [10], 0.31 µM. In addition, the TGI is 1.88 µM in assay [2]; 7.03 µM in [3]; 6.51 µM in [4]; 2.99 µM in assay [5]; 1.07 µM in [6]; 4.67 µM in assay [7]. Also, the values for the TGI in assay [8], in assay [9] and in [10] were 2.83 µM, 6.24 µM and 0.948 µM, respectively.
With `C#CCOCn1cnc2c(=S)nc[nH]c21`, the TGI in assay [1], in assay [2], in assay [3], in assay [4], in [5] and in assay [6] was greater than 100 µM throughout. Moreover, the TGI in assay [7], in assay [8], in assay [9] and in assay [10] was greater than 100 µM in each case.
With `COc1cc(/C=C2\CN(C)C/C(=C\c3cc(OC)c(OC)c(OC)c3)C2=O)cc(OC)c1OC`, the GI50 in assay [1] was 0.271 µM; in [2], 0.357 µM; in assay [3], 0.214 µM; in assay [4], 0.245 µM; in [5], 0.306 µM; in assay [6] it was 0.37 µM. The GI50 in assay [7] is 0.412 µM; in [8], 0.42 µM; in assay [9] it was 0.288 µM; in assay [10] it was 0.252 µM. Also, the TGI in assay [1] came out at 1.13 µM; in assay [2] it was 1.17 µM; in assay [3], 0.505 µM; in assay [4] it was 0.758 µM; in [5], 1.57 µM; in [6] it was 1.59 µM. Further, the TGI was determined as 1.41 µM in [7], 1.61 µM in assay [8], 0.951 µM in [9] and 0.654 µM in [10].
Turning to `O=[N+]([O-])c1cc(CCl)ccc1CCl`, the TGI is 3.14 µM in assay [1]; 6.18 µM in assay [2]; 3.22 µM in [3]; greater than 20.1 µM in assay [4]; 3.59 µM in assay [5]; 16.9 µM in assay [6]. Also, the TGI in [7] is 26 µM; in assay [8], 5.1 µM; in assay [9] it was 2.76 µM; in assay [10], greater than 39.3 µM.
`CNNCc1ccc(C(=O)NC(C)C)cc1`: the TGI in assay [1], in assay [2], in assay [3], in assay [4], in assay [5] and in assay [6] was greater than 500 µM throughout. Further, the TGI in assay [7], in assay [8], in [9] and in assay [10] was greater than 500 µM each time. In addition, the GI50 in [2], in [4], in assay [6] and in [9] was greater than 500 µM in each case.
For `O=C(Nc1ccccc1)Nc1cccc(-n2cc(-c3ccncc3)c(-c3ccc(O)c(Cl)c3)n2)c1`, the GI50 was 3.22 µM in assay [1]; 5.39 µM in assay [2]; 2.27 µM in assay [3]; 2.12 µM in [4]; 3.1 µM in assay [5]; 3.64 µM in assay [6]. Moreover, the GI50 in assay [7] is 6.02 µM; in assay [8], 3.82 µM; in assay [9], 2.92 µM; in [10] it was 3.24 µM. In addition, the TGI was 27.5 µM in assay [1]; 31.5 µM in [2]; 4.45 µM in assay [3]; 4.91 µM in assay [4]; 9.47 µM in assay [5]; greater than 100 µM in assay [6]. Further, the TGI in [7] was found to be 40.7 µM; in assay [8], 21.4 µM; in assay [9], 14.3 µM; in assay [10] it was 17.1 µM.
`COc1cc(-c2cc(=O)c3ccccc3o2)ccc1N`: the TGI in [1], in assay [2], in assay [3], in assay [4], in [5] and in [6] was greater than 100 µM in each case. Further, the TGI in assay [7] is greater than 100 µM; in assay [8] it was greater than 100 µM; in assay [9], 77.5 µM; in [10], greater than 100 µM.
In the case of `O=c1c2ccccc2nc(-c2ccc(Br)cc2)n1NC1OC(CO)C(O)C(O)C1O` (stereo not drawn), the TGI in assay [1], in assay [2], in assay [3], in assay [4], in assay [5] and in [6] was greater than 100 µM throughout. The TGI in [7], in [8], in [9] and in assay [10] was greater than 100 µM in each case.
With `O=C(/C=C\c1cccc2ccccc12)c1cccs1`, the TGI in assay [1] was found to be 7.83 µM; in assay [2] it was 32.8 µM; in [3], 17.4 µM; in assay [4], 26.1 µM; in assay [5] it was 28.3 µM; in [6] it was 34.5 µM. Also, the TGI is 31.7 µM in [7], 34.8 µM in assay [8], 22.7 µM in assay [9] and 27.7 µM in assay [10].
Take `C/C=C/C=N/N(C(=O)c1cc([N+](=O)[O-])cc([N+](=O)[O-])c1)C1=NC(c2ccccc2)C(c2ccccc2)=NN1` (stereo not drawn): the TGI in assay [1] is greater than 100 µM; in [2], greater than 100 µM; in assay [3], greater than 100 µM; in [4], 70.8 µM; in assay [5], greater than 100 µM; in assay [6], greater than 100 µM. In addition, the TGI was greater than 100 µM in [7], 77.9 µM in assay [8], greater than 100 µM in [9] and greater than 100 µM in assay [10].
For `Cc1ccccc1NC(=O)C(=O)C(c1cnc2ccc([N+](=O)[O-])cc2n1)[N+](=O)[O-]` (stereo not drawn), the TGI in [1], in assay [2], in assay [3], in assay [4], in [5] and in [6] was greater than 100 µM throughout. Moreover, the TGI in assay [7], in assay [8], in assay [9] and in [10] was greater than 100 µM throughout.
Take `CCC(C)OC(=O)C1C2CCC(O2)C1C(=O)O` (stereo not drawn): the TGI in assay [1] is greater than 100 µM; in [2], greater than 100 µM; in [3], greater than 66.2 µM; in [4], greater than 100 µM; in assay [5], greater than 100 µM; in assay [6] it was greater than 100 µM. In addition, the TGI in assay [7] is greater than 100 µM; in assay [8], greater than 100 µM; in assay [9], greater than 100 µM; in assay [10], greater than 55.4 µM.
`N=C1N(c2ccccc2)C(=O)C23CCCC2C13N1CCOCC1` (stereo not drawn): the TGI in [1], in [2], in assay [3], in assay [4], in [5] and in assay [6] was greater than 100 µM in each case. In addition, the TGI in assay [7], in assay [8], in assay [9] and in assay [10] was greater than 100 µM each time.
Take `O=C(O)c1ccc2c(c1Nc1ccccc1)C(=O)c1ccccc1C2=O`: the GI50 in [1] was 40.5 µM; in assay [2] it was greater than 100 µM; in assay [3], 98.4 µM; in assay [4], 54.8 µM; in assay [5], 38.1 µM; in assay [6], 51.2 µM. In addition, the GI50 in [7] was 34.2 µM; in assay [8] it was 19 µM; in assay [9] it was 16 µM; in [10], 27.3 µM. In addition, the TGI in assay [1], in assay [2], in assay [3], in assay [4], in [5] and in assay [6] was greater than 100 µM in each case. The TGI in assay [7] is greater than 100 µM; in [8], greater than 100 µM; in assay [9] it was 47.1 µM; in assay [10], greater than 100 µM.
